Data taken from patent publication US10889553B2, “Asymmetric triazole benzamide derivatives and the compositions and methods of treatment regarding the same” (NysnoBio Ireland DAC, priority 2017, dated 2021).
Like-named read-outs stand apart in the source and are kept apart here.

What was measured:
[1] = test system: A549 (lung); assay: Cancer cell proliferation assay (acid phosphatase); assay type: cell-based; conditions: Homo sapiens
Outline: (§1)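 Cells seeded at 4×10^4 cells/ml were incubated overnight at 37° C., 5% CO2, then exposed to compound at varying concentrations in triplicate for 72 hrs. Proliferation was read by acid phosphatase assay (p-nitrophenol phosphate, pH 5.5, 2 hours, 405 nm minus 620 nm) as percent inhibition versus DMSO controls.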

[2] = test system: HCT-116 (colon); assay: Cancer cell proliferation assay (acid phosphatase); assay type: cell-based; conditions: Homo sapiens
Outline: as §1

[3] = test system: LS-174T (colon); assay: Cancer cell proliferation assay (acid phosphatase); assay type: cell-based; conditions: Homo sapiens, LS174T; Table 6A; 72 hrs
Outline: as §1

[4] = test system: Calu-6 (lung); assay: Cancer cell proliferation assay (acid phosphatase); assay type: cell-based; conditions: Homo sapiens, Table 6A, 72 hrs, read-out: Calu6 IC50
Outline: as §1

[5] = Microsomal stability assay, human liver microsomes; assay type: in vitro ADME; conditions: pH 7.4; human liver microsomes 1.0 mg/mL, 1 μM compound, NADPH; read-out: HLM t1/2
Protocol: Compounds were also tested for metabolic stability in both rat liver microsomes (RLM) and the compounds are tested for human liver microsomes (HLM) and their half-life is calculated (See Tables 5A and 5B). The assay was performed as follows. The total volume for each incubation was 250 μL. A 100 μM DMSO solution of compound (diluted from 10 mM stock solution) was spiked into 50 mM KH2PO4 (pH 7.4) buffer containing liver microsome at a concentration of 1.0 mg/mL. The reaction was initiated by the addition of 50 μL of 1 mM NADPH. The final concentration of each compound was 1 μM (1% DMSO). The positive controls, phenacetin for CYP1A2, diclofenac for CYP2C9, omeprazole for CYP2C19, dextromethorphan for CYP2D6 and midazolam for CYP3A4 were added to a separate tube with the final substrate concentrations of 1 μM (1% DMSO) for evaluating the enzyme activities in the liver microsomes. At 0, 15, 30 and 60 min, an aliquot of 15 μL reaction mixtures were removed and 200 μL of methanol (with internal standard of 25 ng/mL propranolol) was added to quench the reaction. The resulting mixture was centrifuged and supernatant was used for LC-MS/MS analysis.
The signals for each compound, or the metabolites for the probe substrates and the internal standard were integrated and the peak area ratios to internal standard were generated. Percent parent remaining at a specified timepoint was calculated based on the peak area ratios at time 0 (as 100%) for in vitro metabolic stability studies in liver microsome and hepatocyte. The observed rate constant (kobs) for the metabolism of substrates was calculated by plotting the natural log of percentage substrate remaining versus time of incubation with the slope being kobs. The half-life (T1/2) was calculated according to the following equation: T1/2=[…]

[6] = test system: HT-29 (colon); assay: Cancer cell proliferation assay (acid phosphatase); assay type: cell-based; conditions: Homo sapiens, Table 6C, data of FIG. 2
Outline: as §1

[7] = test system: Colo205 (colon); assay: Cancer cell proliferation assay (acid phosphatase); assay type: cell-based; conditions: Homo sapiens, COLO 205; Table 6C, data of FIG. 2
Outline: as §1

[8] = test system: SKOV3 (ovarian); assay: Cancer cell proliferation assay (acid phosphatase); assay type: cell-based; conditions: Homo sapiens, SK-OV-3; Table 6D, another set of cell proliferation assay
Outline: as §1

[9] = test system: Ovarian (ES-2); assay: Cancer cell proliferation assay (acid phosphatase); assay type: cell-based
Outline: as §1

[10] = test system: TOV-112D (ovarian); assay: Cancer cell proliferation assay (acid phosphatase); assay type: cell-based; conditions: Homo sapiens, TOV112D
Outline: as §1

[11] = test system: JEKO-1 (lymophoma); assay: Cancer cell proliferation assay (acid phosphatase); assay type: cell-based; conditions: Homo sapiens
Outline: as §1

[12] = test system: Ovarian (A2780); assay: Cancer cell proliferation assay (acid phosphatase); assay type: cell-based; conditions: Homo sapiens
Outline: as §1

[13] = test system: H292 (lung); assay: Cancer cell proliferation assay (acid phosphatase); assay type: cell-based; conditions: Homo sapiens, NCI-H292; Table 6C, data of FIG. 2
Outline: as §1

[14] = test system: A427 (lung); assay: Cancer cell proliferation assay (acid phosphatase); assay type: cell-based; conditions: Homo sapiens, A-427; Table 6C, data of FIG. 2
Outline: as §1

[15] = test system: Ovarian (OAW42); assay: Cancer cell proliferation assay (acid phosphatase); assay type: cell-based; conditions: Homo sapiens, OAW-42
Outline: as §1

[16] = test system: Ovarian OAW28 (OAW2B); assay: Cancer cell proliferation assay (acid phosphatase); assay type: cell-based; conditions: Homo sapiens, OAW-28
Outline: as §1

[17] = A549, 72 h, Table 6A, 72 hrs, read-out: A549 IC50
[18] = HCT-116, 72 h, Table 6A, 72 hrs, read-out: HCT-116 IC50
[19] = Table 6D, another set of cell proliferation assay

Q: Which results are given for C#Cc1ccc(C(=O)Nc2nc(NC(=O)c3cccc(N=[N+]=[N-])c3)n(-c3ccccc3)n2)cc1 [Compound 2]?
A: IC50 [1, 17]: 2.2 µM; IC50 [2, 18]: 642 µM

Q: Which IC50 [1, 17] does the source give for Cc1ccccc1C(=O)Nc1nc(NC(=O)c2ccccn2)nn1-c1ccccc1 [Compound 16] here?
A: Its IC50 is 2.6 µM.

Q: Which IC50 [3] does the source give for Cc1ccccc1C(=O)Nc1nc(NC(=O)C2CCCN2)nn1-c1ccccc1 (stereo not shown) [Compound 20] here?
A: The IC50 was > 1000 nM.

Q: With Cc1ccc(C(=O)Nc2nc(NC(=O)c3ccc(C)cc3)n(-c3ccccc3)n2)cc1 [Compound 21] as the compound, how does the IC50 [1, 17] read?
A: The IC50 was 2.5 µM.

Q: And the IC50 [3]?
A: Its IC50 is > 2500 nM.

Q: And the IC50 [4]?
A: The IC50 was > 2500 nM.

Q: For COc1ccccc1C(=O)Nc1nc(NC(=O)c2ccccc2OC)n(-c2ccccc2)n1 [Compound 23], which IC50 [1, 17] is on record?
A: Its IC50 is > 2.5 µM.

Q: And the IC50 [3]?
A: Its IC50 is > 2500 nM.

Q: What about the IC50 [4] of the same compound?
A: Its IC50 is > 2500 nM.

Q: Which results are given for Cc1ccccc1C(=O)Nc1nc(NC(=O)c2ccccc2C)n(-c2ccc(F)c(F)c2)n1 [Compound 24]?
A: half-life at 1 μM [5]: 3.4 h; IC50 [1, 17]: 0.28 µM; IC50 [3]: 940 nM; IC50 [4]: 290 nM

Q: For Cc1ccccc1C(=O)Nc1nc(NC(=O)c2ccccc2C)n(-c2ccc(C(F)(F)F)cc2)n1 [Compound 25], which half-life at 1 μM [5] is on record?
A: Its half-life at 1 μM is 1.18 h.

Q: What about the IC50 [1, 17] of the same compound?
A: The IC50 was 0.04 µM.

Q: And the IC50 [3]?
A: Its IC50 is < 200 nM.

Q: What about the IC50 [2, 18] of the same compound?
A: Its IC50 is 0.12 µM.

Q: And the IC50 [4]?
A: Its IC50 is 430 nM.

Q: Which IC50 [1, 17] does the source give for Cc1ccccc1C(=O)Nc1nc(NC(=O)c2ccccc2C)n(-c2ccccc2Cl)n1 [Compound 26] here?
A: Its IC50 is 2.5 µM.

Q: What about the IC50 [3] of the same compound?
A: The IC50 was > 1000 nM.

Q: For Cc1ccc(-n2nc(NC(=O)c3ccccc3C)nc2NC(=O)c2ccccc2C)cc1 [Compound 31], which IC50 [1, 17] is on record?
A: Its IC50 is 2.5 µM.

Q: What about the IC50 [3] of the same compound?
A: Its IC50 is > 2500 nM.

Q: Which IC50 [1, 17] does the source give for Cc1ccccc1C(=O)Nc1nc(NC(=O)c2ccccc2C)n(-c2ccccc2F)n1 [Compound 32] here?
A: Its IC50 is > 2.5 µM.

Q: And the IC50 [3]?
A: Its IC50 is > 2500 nM.

Q: With O=C(Nc1nc(NC(=O)c2ccncc2)n(-c2ccccc2)n1)c1ccncc1 [Compound 33] as the compound, how does the IC50 [1, 17] read?
A: Its IC50 is > 2.5 µM.

Q: With Cc1ccccc1C(=O)Nc1nc(NC(=O)c2ccncc2)nn1-c1ccccc1 [Compound 34] as the compound, how does the IC50 [1, 17] read?
A: Its IC50 is 2.5 µM.

Q: What about the IC50 [3] of the same compound?
A: The IC50 was 2600 nM.

Q: For Cc1ccccc1C(=O)Nc1nc(NC(=O)c2ccccc2C)n(-c2ccc(C#N)cc2)n1 [Compound 35], which IC50 [1, 17] is on record?
A: Its IC50 is 2.4 µM.

Q: What about the IC50 [3] of the same compound?
A: The IC50 was 2300 nM.

Q: Which half-life at 1 μM [5] does the source give for Cc1ccccc1C(=O)Nc1nc(NC(=O)c2ccccc2C)n(-c2cccc(Cl)c2)n1 [Compound 36] here?
A: Its half-life at 1 μM is 2.45 h.

Q: And the IC50 [1, 17]?
A: Its IC50 is 0.22 µM.

Q: What about the IC50 [3] of the same compound?
A: The IC50 was 1300 nM.

Q: And the IC50 [4]?
A: Its IC50 is 170 nM.

Q: Which IC50 [1, 17] does the source give for COc1ccc(C(=O)Nc2nc(NC(=O)c3ccc(OC)cc3)n(-c3ccccc3)n2)cc1 [Compound 37] here?
A: The IC50 was 2.3 µM.

Q: And the IC50 [3]?
A: The IC50 was 2400 nM.

Q: Which IC50 [1, 17] does the source give for Cc1cccc(-n2nc(NC(=O)c3ccccc3C)nc2NC(=O)c2ccccc2C)c1 [Compound 38] here?
A: The IC50 was 2.1 µM.

Q: And the IC50 [3]?
A: Its IC50 is 2300 nM.

Q: And the IC50 [4]?
A: Its IC50 is 2600 nM.

Q: Which results are given for Cc1ccccc1C(=O)Nc1nc(NC(=O)c2ccccc2C)n(-c2cccc(F)c2)n1 [Compound 39]?
A: IC50 [1, 17]: 1.2 µM; IC50 [3]: 2100 nM; IC50 [4]: 2500 nM

Q: With O=C(Nc1nc(NC(=O)c2cccnc2)n(-c2ccccc2)n1)c1cccnc1 [Compound 40] as the compound, how does the IC50 [3] read?
A: Its IC50 is > 2500 nM.

Q: What does the source list for O=C(Nc1nc(NC(=O)c2ccccn2)n(-c2ccccc2)n1)c1ccccn1 [Compound 41]?
A: IC50 [1, 17]: 2.5 µM; IC50 [3]: 2500 nM

Q: What does the source list for Cc1ccccc1C(=O)Nc1nc(NC(=O)c2ccccc2C)n(-c2ccc(OC(F)(F)F)cc2)n1 [Compound 42, N,N′-(1-(4-(trifluoromethoxy)phenyl)-1H-1,2,4-triazole-3,5-diyl)bis(2-methylbenzamide)]?
A: half-life at 1 μM [5]: > 8.33 h; IC50 [6]: 0.2 µM; IC50 ([1]; A549, Table 6A, 72 hrs, read-out: A549 IC50): 0.03 µM; IC50 ([1]; A549, Table 6C, data of FIG. 2, read-out: IC50 (μM) A549 (lung)): 65 µM; EC50 ([1]; A549, Table 6D, another set of cell proliferation assay): 72 nM; IC50 [3]: 200 nM; IC50 [7]: 0.2 µM; EC50 [8]: 376 nM; EC50 [9, 19]: 42 nM; IC50 ([9]; Table 6E): 57 nM; IC50 ([10]; Table 6C, data of FIG. 2, read-out: IC50 (μM) TOV-112D (ovarian)): 0.13 µM; EC50 ([10]; Table 6D, another set of cell proliferation assay, read-out: EC50 (nM) Ovarian (TOV0112D)): 98 nM; IC50 ([10]; Table 6E, read-out: Proliferation IC50 (nM) Ovarian TOV112D): 0.103 µM; EC50 ([11]; Table 6D, another set of cell proliferation assay, read-out: EC50 (nM) Mantle cell (Jeko-1)): 154 nM; IC50 ([11]; Table 6E, read-out: Proliferation IC50 (nM) Mantle Cell Jeko-1): 154 nM; EC50 [12, 19]: 58 nM; IC50 ([12]; Table 6E): 84 nM; IC50 [13]: 0.16 µM; IC50 [14]: 0.15 µM; IC50 ([2]; HCT-116, Table 6A, 72 hrs, read-out: HCT-116 IC50): 0.07 µM; IC50 ([2]; HCT-116, Table 6C, data of FIG. 2, read-out: IC50 (μM) HCT-116 (colon)): 0.08 µM; EC50 ([2]; HCT-116, Table 6D, another set of cell proliferation assay): 87 nM; IC50 ([2]; HCT-116, Table 6E, read-out: Proliferation IC50 (nM) CRC HCT-116): 0.087 µM; EC50 [15, 19]: 166 nM; IC50 ([15]; Table 6E): 166 nM; EC50 [16, 19]: 114 nM; IC50 ([16]; Table 6E): 140 nM; IC50 [4]: 60 nM

Q: What does the source list for Cc1ccccc1C(=O)Nc1nc(NC(=O)c2ccccc2C)n(-c2ccc(N3CCCCC3)cc2)n1 [Compound 44]?
A: IC50 [1, 17]: 2 µM; IC50 [3]: 2500 nM; IC50 [4]: > 2500 nM

Q: Which results are given for Cc1ccccc1C(=O)Nc1nc(NC(=O)c2ccccc2C)n(-c2ccc(F)cc2F)n1 [Compound 46]?
A: IC50 [1, 17]: 2.5 µM; IC50 [3]: 2500 nM

Q: What does the source list for Cc1ccccc1C(=O)Nc1nc(NCc2ccccc2)nn1-c1ccc(C(F)(F)F)cc1 [Compound 102]?
A: IC50 [1, 17]: > 2.5 µM; IC50 [2, 18]: 2.5 µM

Q: For Cc1ccnc(-c2nc(NC(=O)c3ccccc3C)n(-c3ccccc3)n2)c1 [Compound 124], which IC50 [1, 17] is on record?
A: The IC50 was 1.2 µM.

Q: What about the IC50 [4] of the same compound?
A: Its IC50 is 1400 nM.
